This note sets out measurements from publication PMC8086025, “A benzopyran with antiarrhythmic activity is an inhibitor of Kir3.1-containing potassium channels” (The Journal of Biological Chemistry, 2021).

Values joined by “and” are separate entries in the source; they are usually repeats but may differ in a detail not shown here. Equal values may be shown once.

In test [1] the target is T1, Kir3.1/2 channel (UniProt P48542+P48549).
T1 sequence (P48549 1-501): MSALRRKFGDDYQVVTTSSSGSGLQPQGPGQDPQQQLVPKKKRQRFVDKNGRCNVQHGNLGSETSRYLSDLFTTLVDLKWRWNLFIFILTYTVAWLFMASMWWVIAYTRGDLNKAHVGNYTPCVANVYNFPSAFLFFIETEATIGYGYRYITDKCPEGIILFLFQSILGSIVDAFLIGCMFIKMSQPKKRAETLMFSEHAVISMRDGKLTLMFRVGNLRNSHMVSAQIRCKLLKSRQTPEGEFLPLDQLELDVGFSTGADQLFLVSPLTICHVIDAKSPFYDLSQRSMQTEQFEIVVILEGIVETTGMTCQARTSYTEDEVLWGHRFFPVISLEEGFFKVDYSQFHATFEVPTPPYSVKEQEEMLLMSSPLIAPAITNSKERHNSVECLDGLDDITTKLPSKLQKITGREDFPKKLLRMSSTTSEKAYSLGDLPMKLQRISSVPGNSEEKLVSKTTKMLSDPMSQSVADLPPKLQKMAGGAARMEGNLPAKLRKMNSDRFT
T1 sequence (P48542 1-425): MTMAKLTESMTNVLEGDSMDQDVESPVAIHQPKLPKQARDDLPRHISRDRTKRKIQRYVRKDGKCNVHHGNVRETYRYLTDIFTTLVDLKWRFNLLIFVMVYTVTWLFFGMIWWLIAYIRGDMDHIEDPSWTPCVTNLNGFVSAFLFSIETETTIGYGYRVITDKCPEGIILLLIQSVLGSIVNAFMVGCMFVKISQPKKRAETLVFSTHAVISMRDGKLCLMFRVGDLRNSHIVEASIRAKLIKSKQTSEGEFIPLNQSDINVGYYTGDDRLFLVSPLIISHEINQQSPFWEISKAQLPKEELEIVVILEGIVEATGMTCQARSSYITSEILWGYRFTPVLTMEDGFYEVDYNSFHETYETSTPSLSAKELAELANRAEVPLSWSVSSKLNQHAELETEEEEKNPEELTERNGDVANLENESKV
The experiment in a line: Whole-cell patch clamp, HEK293T cells, Kir3.1/2. The note with it: whole-cell patch-clamp HEK-293 cells; read-out: IC50, inhibition of Kir3.1/2. Type of test: cell-based, human Kir3.1, mouse Kir3.2. On the set-up: expressed in transfected cells; host or cells: HEK293T. The procedure: For the experiments shown in Figure 1, G and H, whole-cell currents were recorded with an Axopatch 200B amplifier and pCLAMP software (Molecular Devices). HEK293T cells were transiently transfected with 1 μg Kir3.1 together with 1 μg Kir3.2 or 1 μg Kir3.4 DNA, using polyethylenimine (PEI). The cells were maintained in DMEM supplemented with 10% Fetal Bovine Serum and 1% Penicillin/Streptomycin at 37 °C in a 5% CO2 humidified atmosphere and were studied 24 to 48 h after transfection. HEK293T cells were bathed in Low K^+ (LK) solution (135 mM NaCl, 5 mM KCl, 1.2 mM MgCl2, 1.5 mM CaCl2, 8 mM Glucose, 10 mM HEPES with pH 7.4). High K^+ (HK) solution (5 mM NaCl, 135 mM KCl, 1.2 mM MgCl2, 1.5 mM CaCl2, 8 mM Glucose, 10 mM HEPES with pH 7.4) was perfused to establish basal currents. BP-G1 in HK solution was perfused sequentially in a concentration response manner prior to applying 5 mM BaCl2 in HK to identify remaining barium-insensitive leak currents and subtract them from the current records. […] Cells used in the experiments were selected based on eGFP fluorescence. A ramp protocol from −80 mV to +80 mV was used and currents were recorded at −80 mV in the whole-cell mode (using the Strathclyde Electrophysiology Software from the University of Strathclyde, Glasgow). The patch-clamp data were analyzed offline in pClamp (Molecular Devices) and OriginLab software. […]
(In general: Patch clamp records ionic current or voltage across a cell membrane.)

Test [2] deals with T2, Kir3.1(D173A) mutant (Homo sapiens, UniProt P48544+P48549, D173A).
T2 construct: expressed in transfected cells; host or cells: Xenopus laevis oocytes (cRNA injection)
T2 sequence (P48549 whole entry D173A): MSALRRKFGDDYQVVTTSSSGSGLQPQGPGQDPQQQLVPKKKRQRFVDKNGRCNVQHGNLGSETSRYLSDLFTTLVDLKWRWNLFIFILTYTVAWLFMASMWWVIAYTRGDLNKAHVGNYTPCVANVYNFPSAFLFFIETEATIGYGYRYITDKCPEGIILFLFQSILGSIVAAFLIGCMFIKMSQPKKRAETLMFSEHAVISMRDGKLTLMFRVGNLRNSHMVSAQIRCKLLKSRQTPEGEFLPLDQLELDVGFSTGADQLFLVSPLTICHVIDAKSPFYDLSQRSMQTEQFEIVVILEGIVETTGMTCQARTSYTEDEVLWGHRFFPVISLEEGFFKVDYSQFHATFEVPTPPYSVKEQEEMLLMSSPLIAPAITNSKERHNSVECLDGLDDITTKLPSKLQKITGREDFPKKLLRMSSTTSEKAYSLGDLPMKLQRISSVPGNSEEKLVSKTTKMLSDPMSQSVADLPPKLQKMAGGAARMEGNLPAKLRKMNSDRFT
T2 sequence (P48544 whole entry): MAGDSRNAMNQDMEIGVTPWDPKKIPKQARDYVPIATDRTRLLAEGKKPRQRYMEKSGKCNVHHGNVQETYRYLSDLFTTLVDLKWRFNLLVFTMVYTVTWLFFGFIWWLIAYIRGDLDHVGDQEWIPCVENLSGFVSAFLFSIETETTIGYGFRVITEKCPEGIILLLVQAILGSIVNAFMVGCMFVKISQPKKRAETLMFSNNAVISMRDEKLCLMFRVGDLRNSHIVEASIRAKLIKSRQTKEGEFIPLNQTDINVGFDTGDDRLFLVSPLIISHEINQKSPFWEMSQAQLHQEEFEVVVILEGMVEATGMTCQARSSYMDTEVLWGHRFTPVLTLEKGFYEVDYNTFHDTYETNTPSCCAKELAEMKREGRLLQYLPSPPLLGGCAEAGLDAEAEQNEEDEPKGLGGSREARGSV
As to the kind of experiment: TEVC in Xenopus oocytes, Kir3.1(D173A)/4. Format: cell-based. The note with it: 1 μM. The procedure: (§1) X. laevis oocytes were isolated and microinjected as previously described ([6]). Human Kir3.1, mouse Kir3.2, and human Kir3.4 DNA constructs were used for electrophysiology experiments. All cRNA constructs were injected in the amount of 2 ng per oocyte. Injected oocytes were incubated for 2 to 3 days at 18 °C to allow for expression. Whole-cell oocyte currents were then measured using a GeneClamp 500 amplifier (Axon Instruments). Microelectrodes had resistances of 0.5 to 1 megohm using a 3M KCl solution in 1.4% agarose. Oocytes were perfused with a low K^+ (LK) solution ND96 (2 mM KCl, 96 mM NaCl, 1 mM MgCl2, 1.8 mM CaCl2, 5 mM HEPES-Na) to establish a baseline for the recordings. Basal current was measured in a high potassium (HK) solution ND96K (96 mM KCl, 10 mM HEPES-K, 1 mM MgCl2, 1.8 mM CaCl2). To block the current, the oocyte chamber was perfused with 4 mM BaCl2 in ND96K. Only the Barium-sensitive current was used for statistical analysis. To measure the inhibitory activity of the channels, 1 μM BP-G1 in ND96K (HK) was used. Typically, oocytes were held at 0 mV (EK) and the current was monitored constantly using a ramp protocol with a command potential from −80 to +80 mV. Current amplitude was measured at the end of a 1 s sweep. All currents were analyzed when they reached steady state. Error bars in the figures represent SD (N > 4).

Test [3] concerns the target Kir3.1(T143A)/4 (Homo sapiens, UniProt P48544+P48549, T143A). Type of test: cell-based. The note with it: 1 μM, TEVC.
In test [4] the target is T3, Kir3.4/4(S143F, N179D) (Homo sapiens, UniProt P48544, N179D/S143F).
T3 construct: expressed in transfected cells; host or cells: Xenopus laevis oocytes (cRNA injection)
T3 sequence (P48544 whole entry S143F/N179D): as the sequence (P48544 whole entry) above, with S143F, N179D counted along it
T3 sequence (P48544 whole entry, stated change not applied): as the sequence (P48544 whole entry) above
The experiment in a line: TEVC in Xenopus oocytes, Kir3.4/4(S143F, N179D). As to conditions: read-out: less inhibition of Kir3.4/4(S143F, N179D) than of Kir3.4/4(S143F). Type of test: cell-based. How it is done: as §1

The target of test [5] is T4, Kir3.4/4(S143F) channel mutant (Homo sapiens, UniProt P48544, S143F).
T4 construct: expressed in transfected cells; host or cells: Xenopus laevis oocytes (cRNA injection)
T4 sequence (P48544 whole entry S143F): as the sequence (P48544 whole entry) above, with S143F counted along it
T4 sequence (P48544 whole entry, stated change not applied): as the sequence (P48544 whole entry) above
As to the kind of experiment: TEVC in Xenopus oocytes, Kir3.4/4(S143F). Type of test: cell-based. As to conditions: read-out: IC50, inhibition of Kir3.4/4(S143F).

Chain of Kir3.1(T143A)/4 (P48544 whole entry): as above
Chain of Kir3.1(T143A)/4 (P48549 whole entry T143A): as the sequence (P48549 whole entry D173A) above, with T143A, A173D counted along it

Regarding `Cc1cc(CO)nc2cc3c(cc12)OC(C)(C)[C@H](O)[C@H]3NCCc1ccccc1` [BP-G1, (3R,4S)-7-(hydroxymethyl)-2,2,9-trimethyl-4-(2-phenylethylamino)-3,4-dihydropyrano[2,3-g]quinolin-3-ol], the IC50 in test [1] is 10 to 30 nM and 32.2 nM; in test [5] it was 62.1 nM. The “current block, Kir3.1(D173A)” value in test [2] is on record as roughly 25%. The “block of Kir3.1(T143A)/4” value in test [3] is “no significant reduction in BP-G1 block”. The inhibition at 1 µM in test [4] was 20%.
